A short description of data set [1]: Reduction potentials versus ferrocene (electrochemistry in acetonitrile). The class given is physicochemical. The following applies: for First Reduction / Second Reduction: reduction potential versus ferrocene. An excerpt: The reversibly reducible material according to one or more of the embodiments disclosed herein is soluble in at least one solvent for redox flow batteries. Accordingly, also provided herein is a negolyte for use in redox-flow batteries, the negolyte including the reversibly reducible material and a redox flow battery solvent. Such solvents include, but are not limited to, acetonitrile, propylene glycol, propylene carbonate, dimethyl acetamide, and dimethyl formamide. […] In some embodiments, the negolyte also includes an electrolyte. Suitable electrolytes include, but are not limited to, tetraalkylammonium hexafluorophosphate, perchlorate, tetrafluoroborate, triflate, perfluorobutylsulfonate, lithium salts thereof (e.g., lithium hexafluorophosphate or perchlorate), other organic-soluble materials, any other suitable electrolyte, or a combination thereof. Other suitable electrolytes include, but are not limited to, sulfuric acid and/or potassium hydroxide. An example of the electrochemical trace, with internal ferrocene standard in acetonitrile using tetrabutylammonium hexafluorophosphate electrolyte, is shown in FIG. 1. Although discussed above with regard to non-aqueous redox flow batteries, as will be appreciated by those skilled in the art the instant disclosure is not so limited and may include aqueous redox flow batteries as well.
(§1) Following the formation of reversibly reducible materials as discussed above, various compounds were tested for structure, solubility, and reduction potentials. The results are provided in Table 2 below, with solubility shown in acetonitrile at 23° C. and reduction potentials shown versus ferrocene.

A short description of data set [2]: Solubility in acetonitrile. The class given is physicochemical. On the procedure: In some embodiments, modifying the Z group in formula I above adjusts the solubility of the resulting compound. For example, in one embodiment, compound number 1 has a solubility of 0.1 M in acetonitrile (electrolyte solution), while compound number 2 has a solubility of 0.3 M in acetonitrile.
as §1

Setting [3] is: acetonitrile (electrolyte solution), organic solvent or mixture, read-out: solubility in acetonitrile.
Where [4] appears, read: organic solvent or mixture, in acetonitrile at 23° C., read-out: Solubility.

This note sets out measurements from patent publication US20180099917A1, “REVERSIBLY REDUCIBLE MATERIALS AND USE THEREOF” (University of Kentucky Research Foundation, priority 2016, published 2018).

SMILES strings stand for the structures. Values after ≈ are worked out from the molar mass of the structure shown. Where two headings read alike, the source gives them in different places.

The solubility is the concentration that dissolves in the medium under given conditions. For the molecule `COCCNC1=CC(=O)c2ccccc2C1=O` [Compound 2], in data set [1], the “First Reduction” value is recorded as −1.316 V and the “Second Reduction” value is −1.798 V. In addition, in data set [2] (setting [3]), the solubility turned out to be 300 mM (≈ 69.4 mg/mL). The solubility in data set [2] (setting [4]) was determined as 300 mM (≈ 69.4 mg/mL).
For the molecule `COCCOCCOCCNC1=CC(=O)c2ccccc2C1=O`, in data set [1], the “First Reduction” value was −1.295 V and the “Second Reduction” value is given as −1.784 V. The solubility entry in data set [2] (in acetonitrile at 23° C.) is listed as “Miscible”.
`CCN(CC)C1=CC(=O)c2ccccc2C1=O` [Compound 11]: in data set [1], the “First Reduction” value was −1.362 V and the “Second Reduction” value was −1.686 V. In addition, in data set [1] (second group on the N atom), the electrochemistry properties entry is reported as “excellent electrochemistry properties”. Also, in data set [2] (setting [3]), the solubility was determined as 700 mM (≈ 160 mg/mL). Also, the solubility in data set [2] (setting [4]) is 700 mM (≈ 160 mg/mL).
With `COCCN(CCOC)C1=CC(=O)c2ccccc2C1=O`, in data set [1], the “First Reduction” value is listed as −1.295 V and the Second Reduction was -1.67 V. Besides, the solubility result in data set [2] (in acetonitrile at 23° C.) is “Miscible”.
As to `CC(C)CNC1=CC(=O)c2ccccc2C1=O` [Compound 1], in data set [1], the “First Reduction” value is −1.266 V and the “Second Reduction” value is given as −1.841 V. Further, the solubility in data set [2] (setting [3]) is 100 mM (≈ 22.9 mg/mL). Besides, in data set [2] (setting [4]), the solubility was determined as 100 mM (≈ 22.9 mg/mL).
Take `COCCNC1=C(Cl)C(=O)c2ccccc2C1=O` [Compound 10]: the “solubility compared to compound 2” value in data set [2] (Cl at the R5 position versus identical compound without Cl) is “increases the solubility”.
